The values below come from article PMC2829052, “Mycobacterium tuberculosis Peptides Presented by HLA-E Molecules Are Targets for Human CD8^+ T-Cells with Cytotoxic as well as Regulatory Activity” (PLoS Pathogens, 2010).

Experiment [1] has as its target T1, recombinant human HLA-E*0103 (Homo sapiens, UniProt P13747).
T1 construct: made in house; host or cells: E. coli
Description: biochemical. It is filed as binding.

For the next experiment, the system named is CD3+CD8+CD56- T-cells. It is filed as cell-based, human. To be noted: for percentage of proliferation within CD3+CD8+CD56- cells: PBMCs, peptide 10 µg/ml (PHA 2 µg/ml, PPD 5 µg/ml), IL-7, IL-2 day 7, CFSE read day 10.
The subject of the next experiment is TGFβ1. Type of experiment: cell-based, human.
The test system of another experiment is CD8+ T-cells. It is filed as cell-based, human.
Where [2] appears, read: concentration of peptide reducing fluorescence of standard peptide VMAPC(Fl)TLLL (100 fmol) by 50%, […], gel filtration HPLC, emission 528 nm, at least two separate experiments, read-out: Binding.

Read-outs that look alike come from different tables or passages of the source. Where no end group is shown, it is not given here.

`CC[C@H](C)[C@H](N)C(=O)N[C@@H](CCSC)C(=O)N[C@@H](C)C(=O)N[C@@H](CC(N)=O)C(=O)N[C@@H](CCCNC(=N)N)C(=O)N[C@@H](C)C(=O)N[C@@H](CCC(N)=O)C(=O)N[C@H](C(=O)N[C@@H](CC(C)C)C(=O)O)C(C)C` [Peptide 3]: the IC50 in experiment [1] (setting [2]) was found to be 0.4 µM.
For the compound `CSCC[C@H](NC(=O)[C@@H](N)CCC(N)=O)C(=O)N[C@@H](CCCCN)C(=O)N[C@@H](Cc1ccccc1)C(=O)N[C@@H](Cc1ccc(O)cc1)C(=O)N[C@@H](C)C(=O)N[C@H](C(=O)N[C@@H](C)C(=O)N[C@@H](CC(C)C)C(=O)O)C(C)C` [Peptide 5, QMKFYAVAL], the IC50 in experiment [1] is 1.5 µM.
With `CC(C)C[C@H](NC(=O)[C@H](CC(C)C)NC(=O)[C@@H]1CCCN1C(=O)[C@H](C)NC(=O)[C@H](CCCCN)NC(=O)[C@H](C)NC(=O)[C@@H]1CCCN1C(=O)[C@H](CC(C)C)NC(=O)[C@@H](N)CCCNC(=N)N)C(=O)O` [Peptide 44], the IC50 in experiment [1] (setting [2]) was determined as 0.03 µM.
As for `CC[C@H](C)[C@H](N)C(=O)N[C@@H](CC(C)C)C(=O)N1CCC[C@H]1C(=O)N[C@@H](CO)C(=O)N[C@@H](CC(=O)O)C(=O)N[C@@H](C)C(=O)N1CCC[C@H]1C(=O)N[C@H](C(=O)N[C@@H](CC(C)C)C(=O)O)C(C)C` [Peptide 49], in experiment [1] (setting [2]), the IC50 was 0.2 µM.
On the same count and under the same terms, the result for AMAGSIDLL [Peptide 36] reads 34 µM.
On the same count and under the same terms, in the case of DLPSRLGKI-OH [Peptide 58] it was over 50 µM.
Take DMLGRAGGL-OH [Peptide 12]: the IC50 in experiment [1] (setting [2]) is over 50 µM.
On to EMGRAPLDL-OH [Peptide 43], for which, in experiment [1] (setting [2]), the IC50 is over 50 µM.
As to EMLTSRGLL-OH [Peptide 37], in experiment [1], the IC50 is over 50 µM.
Consider EMVLRADQL-OH [Peptide 11], for which, in experiment [1] (setting [2]), the IC50 was over 50 µM.
The same measure, in the same setting: the result for FLAADALVL-OH [Peptide 15] reads over 50 µM.
For FLLPRGLAI-OH [Peptide 54], the IC50 in experiment [1] (setting [2]) was over 50 µM. Further, the “percentage of proliferation within CD3+CD8+CD56- cells” value in the experiment on CD3+CD8+CD56- T-cells (donor 2) came out at 15.8%; with CD3+CD8+CD56- T-cells (donor 4), 0.2%; with CD3+CD8+CD56- T-cells (donor 6), 1.6%.
With FMTRLGPLL [Peptide 60], the IC50 in experiment [1] was found to be 37 µM.
In the case of GLDARAYRL-OH [Peptide 19], the IC50 in experiment [1] (setting [2]) was over 50 µM.
On the same count and under the same terms, in the case of GLDSRAYRL-OH [Peptide 18] it was over 50 µM; in that of GMGMVGTAL-OH [Peptide 35, GMGMVGTAL], over 50 µM.
With GMNVTAPAL [Peptide 7, GMNVTAPAL], the IC50 in experiment [1] (setting [2]) was determined as 8 µM.
Consider IEPRGAQAL-OH [Peptide 57, IEPRGAQAL], for which the IC50 in experiment [1] was over 50 µM.
For the compound KMNAKAATL [Peptide 4], the IC50 in experiment [1] (setting [2]) was 15 µM.
As to “LAP: recombinant latency associated peptide, reverts active TGFβ to a latent, inactive form (R&D systems)”, in the experiment on TGFβ1 (Rp15 1-1 clone without Tregs, data not shown), the “increased proliferation on addition of LAP to the indicator clone only” value is reported as at most 20%. Besides, the “increase of proliferation on addition of LAP to co-cultures of Tregs and indicator clones” value with TGFβ1 (Tregs + Rp15 1-1, 0.5 µg/ml cognate peptide, HLA-DR3+ APCs, 3 days) is “over 40%”.
Consider LMGAEADAL-OH [Peptide 17, LMGAEADAL], for which, in experiment [1] (setting [2]), the IC50 was over 50 µM.
On the same count and under the same terms, the result for LMGALAVVL [Peptide 26] reads 21 µM.
For the compound LMHYRGELL [Peptide 29], the IC50 in experiment [1] worked out at 20 µM.
Still for that read-out and setting: the result for LPAERAHEL-OH [Peptide 31] reads over 50 µM.
On to PMADIAAAL-OH [Peptide 23, PMADIAAAL], for which the IC50 in experiment [1] (setting [2]) is over 50 µM.
For the compound PMAPLAPLL [Peptide 20], in experiment [1] (setting [2]), the IC50 turned out to be 3 µM.
In the case of PMKRTALAL [Peptide 6, PMKRTALAL], in experiment [1] (setting [2]), the IC50 stood at 18 µM.
The same measure, in the same setting: in the case of QLAPGLQLI-OH [Peptide 46] it was over 50 µM.
As for REPRRGPRL-OH [Peptide 51], the IC50 in experiment [1] was over 50 µM.
RLANLLPLI [Peptide 48]: the IC50 in experiment [1] (setting [2]) was determined as 32 µM.
As for RLASCRDAL-OH [Peptide 61, RLASCRDAL], the “number of BCG vaccinees recognizing the peptide” value in the experiment on CD8+ T-cells stood at 2. For the same compound, the “number of PPD responding adult donors recognizing the peptide” value in the experiment with CD3+CD8+CD56- T-cells (10 PPD responders, recognition = >10% proliferating CD3+CD8+CD56- T-cells) is reported as “not by any”.
As to RLGRLLNRI-OH [Peptide 56], the IC50 in experiment [1] (setting [2]) is over 50 µM.
Still for that read-out and setting: in the case of RLRPELAGL [Peptide 52] it was 46 µM; in that of RMAATAQVL [Peptide 14], 2 µM.
Take RMPPLGHEL [Peptide 62]: the IC50 in experiment [1] was 4 µM.
For the compound RPANLAFFL [Peptide 59], in experiment [1], the IC50 came out at 1.3 µM.
On to RSCPRLTIL-OH [Peptide 64], for which, in experiment [1] (setting [2]), the IC50 was over 50 µM.
On the same count and under the same terms, in the case of SMADRAENL-OH [Peptide 1] it was over 50 µM; in that of SMAGRAGQL-OH [Peptide 2], over 50 µM; in that of TMITFRLRL [Peptide 33], 2.4 µM.
On the same count and under the same terms, the result for TSADRAVVL [Peptide 28] reads 39 µM.
Same read-out and setting: in the case of VEAFRTRPL-OH [Peptide 16] it was over 50 µM.
As for VLLPGLPYL [Peptide 50], in experiment [1], the IC50 was found to be 8 µM.
On to VLPACLGIL [Peptide 67], for which the IC50 in experiment [1] (setting [2]) amounted to 12 µM.
Same read-out and setting: in the case of VLRPGGHFL [Peptide 68] it was 1.8 µM; in that of VMAPDAVRI [Peptide 63], 31 µM; in that of VMATRRNVL [Peptide 55], 16 µM.
Consider VMMSEIAGL [Peptide 32], for which the IC50 in experiment [1] (setting [2]) was found to be 13 µM.
The same measure, in the same setting: in the case of VMTTVLATL [Peptide 34] it was 1.8 µM.
Take VSNLRTGKL-OH [Peptide 27]: the IC50 in experiment [1] was over 50 µM.
Still for that read-out and setting: the result for WLPPLLTNL [Peptide 69] reads 39 µM; that for WMCDRAVDL-OH [Peptide 9], over 50 µM.
